Article PMC6022226, “Novel coumarin-6-sulfonamides as apoptotic anti-proliferative agents: synthesis, in vitro biological evaluation, and QSAR studies” (Journal of Enzyme Inhibition and Medicinal Chemistry, 2018)
Where two headings read alike, the source gives them in different places. Blank lines part the entries; values can stand above or below the compound they belong to.

Tests used:
Bax = experiment: ELISA immunoassay, Bax expression level in HepG2 cells; format: cell-based, human; settings: HepG2 cells treated at IC50 concentration
Text: (§1) The levels of the apoptotic markers (Bax, caspase-3) and the anti-apoptotic marker (Bcl-2) were examined using ELISA colorimetric kits per the manufacturer’s protocol and referring to reported instructions[51] ^, [52].
(§2) The Bcl-2 proteins family is mainly responsible for synchronizing the mitochondrial apoptotic pathway, and classified into two major classes: anti-apoptotic proteins such as Bcl-2 protein and the counteracting pro-apoptotic proteins including Bax protein. In this study, we examined the impact of coumarins 13a and 15a on the level of the anti-apoptotic Bcl2 and the level of the pro-apoptotic Bax (Table 3).

HepG2 cells [1] = experiment: Annexin V-FITC/PI apoptosis assay; format: cell-based, human; settings: HepG2, 24 h
Protocol: Phosphatidylserine externalization was measured using Annexin V-FITC/PI apoptosis detection kit (BD Biosciences, San Jose, CA) according to the manufacturer's instructions, as reported earlier. HepG2 cells were treated with 13a at defined concentrations for 24 h.
The apoptotic effect of coumarin 13a was further assured by Annexin V-FITC/PI (AV/PI) dual staining assay to investigate the occurrence of phosphatidylserine externalization (Figure 3).

MCF-7 breast cancer = experiment: In vitro anti-proliferative activity, SRB assay, MCF-7; format: cell-based, human; settings: mean ± SE of three experiments
Protocol: (§3) HepG2 liver cancer, MCF-7 breast cancer and Caco-2 cancer cell lines were obtained from the National Cancer Institute (Cairo, Egypt). Caco-2 cells were grown in DMEM while HepG2 and MCF-7 were grown in RPMI-1640. Media were supplemented with 10% heat-inactivated FBS, 50 units/mL of penicillin and 50 µg/mL of streptomycin and maintained at 37 °C in a humidified atmosphere containing 5% CO2. The cells were maintained as a “monolayer culture” by serial subculturing. Cytotoxicity was determined using the sulforhodamine B (SRB) method as previously described by Skehan et al.[50] Exponentially growing cells were collected using 0.25% trypsin-EDTA and seeded in 96-well plates at 1000–2000 cells/well in supplemented DMEM medium. After 24 h, cells were incubated for 72 h with various concentrations of the tested compounds as well as doxorubicin as the reference compound. Following 72 h of treatment, the cells were fixed with 10% trichloroacetic acid for 1 h at 4 °C. Wells were stained for 10 min at room temperature with 0.4% SRB dissolved in 1% acetic acid. The plates were air dried for 24 h, and the dye was solubilized with Tris–HCl for 5 min on a shaker at 1600 rpm. The optical density (OD) of each well was measured spectrophotometrically at 564 nm with an ELISA microplate reader (ChroMate-4300, FL, USA). The IC50 values were calculated according to the equation for Boltzmann sigmoidal concentrationeresponse curve using the nonlinear regression models (GraphPad, Prism Version 5). The results reported are means of at least three separate experiments. Significant differences were analyzed by one-way ANOVA wherein the differences were considered to be significant at p < .05.
(§4) All the newly synthesized target coumarin sulfonamides were evaluated for their in vitro anti-proliferative activity against three human tumor cancer cell lines, HepG2 hepatocellular carcinoma, MCF-7 breast cancer, and Caco-2 colon cancer, using SRB colorimetric assay as described by Skehan et al.^50 Doxorubicin was involved in the experiments as a reference cytotoxic compound.

HepG2 cells [2] = experiment: Cell cycle analysis by DNA flow cytometry (PI); format: cell-based, human; settings: HepG2, 24 h, at IC50 concentration
Protocol: Subsequently, the treated cells were collected by centrifugation, fixed in ice-cold 70% (v/v) ethanol, washed with PBS, re-suspended with 0.1 mg/mL RNase, stained with […] PI, and analyzed by flow cytometry using FACS Calibur (Becton Dickinson, BD). The cell cycle distributions were calculated using CellQuest software (Becton Dickinson)[53].
The impact of compound 13a on cell cycle progression was examined in HepG2 cancer cell line after 24 h of treatment (Figure 2). This impact was illustrated by DNA flow cytometric analysis where HepG2 cells were treated with 13a at concentration equals to its IC50. […] Alteration of the Pre-G1 phase and arrest of G2-M phase were significant remarks for compound 13a to induce apoptosis in HepG2 cells.

Bcl-2 = experiment: ELISA immunoassay, Bcl-2 expression level in HepG2 cells; format: cell-based, human; settings: HepG2 cells treated at IC50 concentration
Text: as §1, §2

Caco-2 colon cancer = experiment: In vitro anti-proliferative activity, SRB assay, Caco-2; format: cell-based, human
Protocol: as §3, §4

caspase-3 = experiment: ELISA immunoassay, active caspase-3 level in HepG2 cells; format: cell-based, human; settings: HepG2 cells treated at IC50 concentration
Text: as §1
As a key executioner protease, caspase-3 is activated by upstream initiator caspases as caspase-9.

[3] = system: non-tumorigenic human normal lung fibroblast cell line (WI-38); experiment: In vitro cytotoxicity towards normal WI-38 cells; format: cell-based; settings: for IC50: normal lung fibroblasts; for Selectivity index: WI-38 versus HepG2
[4] = system: HepG2 hepatocellular carcinoma; experiment: In vitro anti-proliferative activity, SRB assay, HepG2; format: cell-based, human; settings: for fold increased potency than doxorubicin: HepG2 IC50 ratio
Protocol: as §3, §4

IC50 (MCF-7 breast cancer; Homo sapiens, MCF7, 72 h incubation): 83.2 ± 6.85 µM
IC50 (Caco-2 colon cancer; Homo sapiens, Caco-2, 72 h incubation, SRB, mean ± SE of three experiments, read-out: IC50 Caco-2): 83.4 ± 7.04 µM
IC50 (Caco-2 colon cancer; Homo sapiens, Caco-2, training set, Table 4, -log IC50 (IC50 in µM), read-out: Caco-2 Experimental activity (pIC50) (converted)): 83.4 µM
IC50 ([4]; Homo sapiens, HepG2, 72 h, 72 h incubation, SRB, mean ± SE of three experiments, read-out: IC50 HepG2): 3.48 ± 0.28 µM
IC50 ([4]; Homo sapiens, HepG2, training set, Table 4, -log IC50 (IC50 in µM), read-out: HepG2 Experimental activity (pIC50) (converted)): 3.48 µM
Compound: CC(=NNc1nc(-c2ccccc2)cs1)c1ccc(NS(=O)(=O)c2ccc3oc(=O)ccc3c2)cc1 [Compound 13a, 2-Oxo-N-(4–(1-(2–(4-phenylthiazol-2-yl)hydrazono)ethyl)phenyl)-2H-chromene-6-sulfonamide]
Bax expression level (Bax): 453.3 Pg/mg protein
Bax, folds of control (Bax): 16.5 folds
annexin V-FITC positive apoptotic cells, folds compared to control (HepG2 cells [1]): about 7.9 folds
annexin V-FITC positive apoptotic cells (UR + LR) (HepG2 cells [1]; control 1.75%): 13.76%
arrest in G2-M phase compared to control (HepG2 cells [2]): 5.4 folds
increase in percentage of cells at Pre-G1 compared to control (HepG2 cells [2]): 6.4 folds
Bcl-2, folds of control (Bcl-2): 0.21 folds
Bcl-2 expression level (Bcl-2): 1.51 ng/mg protein
Bcl-2 level, % of control (Bcl-2): 21.4%
Caspase-3 (active caspase-3 level) (caspase-3): 0.3021 ng/mg protein
IC50 ([3]; Homo sapiens, WI-38): 73.2 ± 3.47 µM
Selectivity index [3]: 21
fold increased potency than doxorubicin [4]: 1.5 fold

IC50 (MCF-7 breast cancer; 72 h incubation, read-out: IC50 MCF7): 11 ± 0.96 µM
IC50 (Caco-2 colon cancer; 72 h incubation, SRB, mean ± SE of three experiments, read-out: IC50 Caco-2): 158 ± 9.39 µM
Caco-2 Experimental activity (pIC50) (Caco-2 colon cancer; training set, Table 4, -log IC50 (IC50 in µM)): −2.1997
IC50 ([4]; 72 h incubation, SRB, mean ± SE of three experiments, read-out: IC50 HepG2): 5.03 ± 0.39 µM
HepG2 Experimental activity (pIC50) ([4]; external validation test compounds, Table 5, -log IC50 (IC50 in µM)): –0.7016
Compound: 2-Oxo-N-(4–(1-(2–(5-oxo-4,5-dihydrothiazol-2-yl)hydrazono)ethyl)phenyl)-2H-chromene-6-sulfonamide [Compound 15a]
Bax expression level (Bax): 394.3 Pg/mg protein
Bax, folds of control (Bax): 14.3 folds
Bcl-2, folds of control (Bcl-2): 0.39 folds
Bcl-2 expression level (Bcl-2): 2.73 ng/mg protein
Bcl-2 level, % of control (Bcl-2): 38.6%
Caspase-3 (active caspase-3 level) (caspase-3): 0.2625 ng/mg protein
Caspase-3, folds of control (caspase-3): ~5.7 folds
Selectivity index [3]: 11
IC50 [3]: 55.92 ± 0.39 µM
fold increased potency than doxorubicin [4]: 1.1 fold
